assay: Measurement of logP values by HPLC on reversed phase columns (EEC directive 79/831 Annex V.A8); type: physicochemical; conditions: HPLC on reversed phase columns; usually LC-MS at pH 2.7 with 0.1% formic acid in water and acetonitrile, linear gradient 10% to 95% acetonitrile

| Compound | log p |
| --- | --- |
| CN(Cc1cc(-c2ccnc(Nc3cccc(Cl)c3)n2)ccn1)CC1OCCO1 [Compound A44] | 1.79 |
| CSCc1cc(-c2ccnc(Nc3cccc(Cl)c3)n2)ccn1 [Example A67] | 3.17 |
| CC1(C)CCCN(Cc2cc(-c3ccnc(Nc4cccc(Cl)c4)n3)ccn2)C1 [Compound A45] | 2.1 |
| CN(C)CCN(C)Cc1cc(-c2ccnc(Nc3cccc(Cl)c3)n2)ccn1 [Compound A58] | 1.44 |
| C=CCN(C)Cc1cc(-c2ccnc(Nc3cccc(Cl)c3)n2)ccn1 [Compound A59] | 1.75 |
| C#CCN(C)Cc1cc(-c2ccnc(Nc3cccc(Cl)c3)n2)ccn1 [Example A39] | 1.75 |
| Clc1cccc(Nc2nccc(-c3ccnc(CN4CCCC4)c3)n2)c1 [Example A47] | 1.7 |
| CN(C)C1CCN(Cc2cc(-c3ccnc(Nc4cccc(Cl)c4)n3)ccn2)CC1 [Example A56] | 1.1 |
| CC(C)CN(C)Cc1cc(-c2ccnc(Nc3cccc(Cl)c3)n2)ccn1 [Compound A60] | 1.93 |
| CC1CCCN1Cc1cc(-c2ccnc(Nc3cccc(Cl)c3)n2)ccn1 (centres unmarked) [Compound A46] | 1.76 |
| CCCCN(C)Cc1cc(-c2ccnc(Nc3cccc(Cl)c3)n2)ccn1 [Compound A38] | 1.97 |
| CN(Cc1cc(-c2ccnc(Nc3cccc(Cl)c3)n2)ccn1)CC1CC1 [Example A40] | 1.84 |

same assay, conditions: pH 2.7

| Compound | log p |
| --- | --- |
| CC(C)CC(=O)NCc1cc(-c2ccnc(Nc3cccc(Cl)c3)n2)ccn1 [Compound A9] | 2.84 |
| CC(C)OC(=O)NCc1cc(-c2ncnc(Nc3cccc(Cl)c3)n2)ccn1 [Compound C3] | 2.94 |
| C=C(C)CC(=O)OCc1cc(-c2ccnc(Nc3cccc(Cl)c3)n2)ccn1 [Compound A88] | 3.92 |
| O=C(NCc1cc(-c2ccnc(Nc3cccc(Cl)c3)n2)ccn1)C1CC1 [Compound A12] | 2.39 |
| CC(=O)OCc1cc(-c2ccnc(Nc3cccc(Cl)c3)n2)ccn1 [Compound A18] | 3.02 |
| CC(c1cc(-c2ccnc(N(C(=O)C3CC3)c3cccc(Cl)c3)n2)ccn1)N(C(=O)C1CC1)C(=O)C1CC1 (centres unmarked) [Compound A91] | 3.71 |
| COCCOCCSCc1cc(-c2ccnc(Nc3cccc(Cl)c3)n2)ccn1 [Compound A73] | 3.11 |
| CC(C)CC(=O)OCc1cc(-c2ccnc(Nc3cccc(Cl)c3)n2)ccn1 [Compound A21] | 4.26 |
| CCC(C)CSCc1cc(-c2ccnc(Nc3cccc(Cl)c3)n2)ccn1 (centres unmarked) [Compound A77] | 5 |
| Clc1cccc(Nc2nccc(-c3ccnc(CSCc4ccccc4)c3)n2)c1 [Compound A83] | 4.39 |
| COCC(=S)NCc1cc(-c2ccnc(Nc3cccc(Cl)c3)n2)ccn1 [Compound A16] | 3.29 |
| CC(=O)OCc1cc(-c2ccnc(N(C(C)=O)c3cccc(Cl)c3)n2)ccn1 [Compound A26] | 2.35 |
| CC(NC(=O)C1CC1)c1cc(-c2ccnc(Nc3cccc(Cl)c3)n2)ccn1 (centres unmarked) [Compound A93] | 2.64 |
| O=C(NCc1cc(-c2ccnc(Nc3cccc(Cl)c3)n2)ccn1)C1CCC1 [Compound A7] | 2.69 |
| CN(Cc1cc(-c2ccnc(Nc3cccc(Cl)c3)n2)ccn1)C1CCCC1 [Compound A51] | 1.95 |
| CCCC(=O)NC(C)c1cc(-c2ccnc(Nc3cccc(Cl)c3)n2)ccn1 (centres unmarked) [Compound A90] | 2.8 |

| Compound | log p |
| --- | --- |
| Clc1cccc(Nc2nccc(-c3ccnc(CN4CC=CC4)c3)n2)c1 [Compound A49] | 1.67 |
| C=COC(=O)NCc1cc(-c2ncnc(Nc3cccc(Cl)c3)n2)ccn1 [Compound C5] | 2.84 |
| COCC(C)C(=O)OC(C)c1cc(-c2ccnc(Nc3cccc(Cl)c3)n2)ccn1 (centres unmarked) [Compound A99] | 3.83 |
| CCCC(=O)NCc1cc(-c2ccnc(Nc3cccc(Cl)c3)n2)ccn1 [Compound A5] | 2.51 |
| CC(NC(=O)C1CC1)c1cc(-c2ccnc(N(C(=O)C3CC3)c3cccc(Cl)c3)n2)ccn1 (centres unmarked) [Compound A92] | 2.49 |
| CN(CCC#N)Cc1cc(-c2ccnc(Nc3cccc(Cl)c3)n2)ccn1 [Compound A64] | 1.74 |
| N#CCc1cc(-c2ccnc(Nc3cccc(Cl)c3)n2)ccn1 [Compound A94] | 2.94 |
| CN(C)Cc1cc(-c2ccnc(Nc3cccc(Cl)c3)n2)ccn1 [Compound A41] | 1.57 |
| CCCN(C)Cc1cc(-c2ccnc(Nc3cccc(Cl)c3)n2)ccn1 [Compound A65] | 1.81 |
| CC(C)CSCc1cc(-c2ccnc(Nc3cccc(Cl)c3)n2)ccn1 [Compound A84] | 4.54 |
| O=C(OCc1cc(-c2ccnc(Nc3cccc(Cl)c3)n2)ccn1)C1CCCC1 [Compound A36] | 4.41 |
| CC(C)(C)C(=O)NCc1cc(-c2ccnc(Nc3cccc(Cl)c3)n2)ccn1 [Compound A13] | 2.88 |
| CC(C)C(=O)NCc1cc(-c2ccnc(Nc3cccc(Cl)c3)n2)ccn1 [Compound A2, N-[(4-{2-[(3-chlorophenyl)amino]pyrimidin-4-yl}pyridin-2-yl)methyl]-2-methyl propanamide] | 2.52 |
| CCN(CC)Cc1cc(-c2ccnc(Nc3cccc(Cl)c3)n2)ccn1 [Compound A53] | 1.78 |
| CC(C)C(=O)OCc1cc(-c2ccnc(Nc3cccc(Cl)c3)n2)ccn1 [Compound A31] | 3.89 |

The remaining lines, values ahead:

| log p | Compound |
| --- | --- |
| 4.29 | CCCCC(=O)OCc1cc(-c2ccnc(Nc3cccc(Cl)c3)n2)ccn1 [Example A23] |
| 2.1 | CC1CC(C)CN(Cc2cc(-c3ccnc(Nc4cccc(Cl)c4)n3)ccn2)C1 (centres unmarked) [Example A48] |
| 4.31 | CC(C)(C)C(=O)OCc1cc(-c2ccnc(Nc3cccc(Cl)c3)n2)ccn1 [Example A24] |
| 1.84 | CCOCCNCc1cc(-c2ccnc(Nc3cccc(Cl)c3)n2)ccn1 [Example A95] |
| 3.67 | CCOC(=O)CCSCc1cc(-c2ccnc(Nc3cccc(Cl)c3)n2)ccn1 [Example A85] |
| 2.6 | C=C(C)C(=O)NCc1cc(-c2ccnc(Nc3cccc(Cl)c3)n2)ccn1 [Example A8] |
| 4.97 | CC(C)CCSCc1cc(-c2ccnc(Nc3cccc(Cl)c3)n2)ccn1 [Example A86] |
| 4.86 | O=C(OCc1cc(-c2ccnc(N(C(=O)C3CCCC3)c3cccc(Cl)c3)n2)ccn1)C1CCCC1 [Example A35] |
| 4.7 | CC(C)(C)C(=O)OCc1cc(-c2ccnc(N(C(=O)C(C)(C)C)c3cccc(Cl)c3)n2)ccn1 [Example A30] |
| 3.73 | Clc1cccc(Nc2nccc(-c3ccnc(CI)c3)n2)c1 [Example A68] |
| 3.11 | CCC(=O)OCc1cc(-c2ccnc(N(C(=O)CC)c3cccc(Cl)c3)n2)ccn1 [Example A28] |
| 3.13 | COCCC(=O)OCc1cc(-c2ccnc(Nc3cccc(Cl)c3)n2)ccn1 [Example A34] |
| 5.34 | CC(C)(C)CCSCc1cc(-c2ccnc(Nc3cccc(Cl)c3)n2)ccn1 [Example A78] |
| 1.75 | CN(C)CCSCc1cc(-c2ccnc(Nc3cccc(Cl)c3)n2)ccn1 [Example A82] |
| 1.6 | Clc1cccc(Nc2nccc(-c3ccnc(CN4CCOCC4)c3)n2)c1 [Example A50] |
| 3.83 | CCCC(=O)OCc1cc(-c2ccnc(Nc3cccc(Cl)c3)n2)ccn1 [Example A20] |
| 2.33 | COCC(=O)NCc1cc(-c2ccnc(Nc3cccc(Cl)c3)n2)ccn1 [Example A11] |
| 1.82 | COCC1CCCN1Cc1cc(-c2ccnc(Nc3cccc(Cl)c3)n2)ccn1 (centres unmarked) [Example A62] |
| 3.8 | C=CCSCc1cc(-c2ccnc(Nc3cccc(Cl)c3)n2)ccn1 [Example A75] |
| 5.08 | CCCCCSCc1cc(-c2ccnc(Nc3cccc(Cl)c3)n2)ccn1 [Example A74] |
| 1.78 | Clc1cccc(Nc2nccc(-c3ccnc(CN4CCSCC4)c3)n2)c1 [Example A55] |
| 3.44 | CCC(=O)OCc1cc(-c2ccnc(Nc3cccc(Cl)c3)n2)ccn1 [Example A22] |
| 1.79 | CC(C)N(C)Cc1cc(-c2ccnc(Nc3cccc(Cl)c3)n2)ccn1 [Example A42] |
| 2.88 | O=C(NCc1cc(-c2ccnc(Nc3cccc(Cl)c3)n2)ccn1)C1CCCC1 [Example A3] |

same assay, conditions: reversed phase HPLC column; HPLC on reversed phase columns; usual method: LC-MS at pH 2.7, 0.1% formic acid in water / acetonitrile, linear gradient 10% to 95% acetonitrile; read-out: logP

| chromatographic logP | Compound |
| --- | --- |
| 3.33 | CC(=O)OC(C)c1cc(-c2ccnc(Nc3cccc(Cl)c3)n2)ccn1 (centres unmarked) [Compound A98, 1-(4-{2-[(3-chlorophenyl)amino]pyrimidin-4-yl}pyridin-2-yl)ethyl acetate] |

same assay, conditions: reversed phase HPLC column; HPLC on reversed phase columns; usually LC-MS at pH 2.7 with 0.1% formic acid in water and acetonitrile, linear gradient 10% to 95% acetonitrile; read-out: log p

| chromatographic logP | Compound |
| --- | --- |
| 3.59 | CCC(C)CNC(=S)NCc1cc(-c2ccnc(Nc3cccc(Cl)c3)n2)ccn1 (centres unmarked) [Compound A6, 1-[(4-{2-[(3-chlorophenyl)amino]pyrimidin-4-yl}pyridin-2-yl)methyl]-3-(2-methylbutyl)thiourea] |
| 3.64 | C=CCC(=O)OCc1cc(-c2ccnc(Nc3cccc(Cl)c3)n2)ccn1 [Compound A37, (4-{2-[(3-chlorophenyl)amino]pyrimidin-4-yl}pyridin-2-yl)methyl but-3-enoate] |
| 3.64 | CCSCc1cc(-c2ccnc(Nc3cccc(Cl)c3)n2)ccn1 [Compound A69, N-(3-chlorophenyl)-4-{2-[(ethylsulfanyl)methyl]pyridin-4-yl}pyrimidin-2-amine] |
| 3.02 | COCc1cc(-c2ccnc(N(C)c3cccc(Cl)c3)n2)ccn1 [Compound A25, N-(3-chlorophenyl)-4-[2-(methoxymethyl)pyridin-4-yl]-N-methylpyrimidin-2-amine] |
| 1.52 | NCc1cc(-c2ccnc(Nc3cccc(Cl)c3)n2)ccn1 [Compound A1, 4-[2-(aminomethyl)pyridin-4-yl]-N-(3-chlorophenyl)pyrimidin-2-amine] |

same assay, conditions: reversed phase HPLC column; LC-MS at pH 7.8, 0.001 molar ammonium hydrogen carbonate in water, gradient 10% to 95% acetonitrile; read-out: log p [c]

| chromatographic logP | Compound |
| --- | --- |
| 1.74 | NCc1cc(-c2ncnc(Nc3cccc(Cl)c3)n2)ccn1 [Compound C6, 4-[2-(aminomethyl)pyridin-4-yl]-N-(3-chlorophenyl)-1,3,5-triazin-2-amine] |

— patent US20110294810A1, “SUBSTITUTED (PYRIDYL)-AZINYLAMINE DERIVATIVES AS PLANT PROTECTION AGENTS” (priority 2008, published 2011)
